Measured values taken from patent US10259810B2, “N-sulfonylated pyrazolo[3,4-b]pyridin-6-carboxamides and method of use” (AbbVie S.à.r.l., priority 2015, dated 2019).

Columns and labels:
ΔF508-CFTR [1] = target: T1, ΔF508-CFTR (Homo sapiens, UniProt P13569, DEL508-508); experiment: CFTR cell surface levels using HRP-tagged ΔF508-CFTR expressing CFBE cells, in the presence of a co-corrector; assay type: cell-based; conditions: HRP-tagged ΔF508-CFTR CFBE cells, in the presence of 3 μM co-corrector; for EC50: read-out: EC50
T1 construct: host or cells: CFBE41o-, doxycycline-inducible
T1 sequence (P13569 with tags, fused parts or gaps DEL508-508): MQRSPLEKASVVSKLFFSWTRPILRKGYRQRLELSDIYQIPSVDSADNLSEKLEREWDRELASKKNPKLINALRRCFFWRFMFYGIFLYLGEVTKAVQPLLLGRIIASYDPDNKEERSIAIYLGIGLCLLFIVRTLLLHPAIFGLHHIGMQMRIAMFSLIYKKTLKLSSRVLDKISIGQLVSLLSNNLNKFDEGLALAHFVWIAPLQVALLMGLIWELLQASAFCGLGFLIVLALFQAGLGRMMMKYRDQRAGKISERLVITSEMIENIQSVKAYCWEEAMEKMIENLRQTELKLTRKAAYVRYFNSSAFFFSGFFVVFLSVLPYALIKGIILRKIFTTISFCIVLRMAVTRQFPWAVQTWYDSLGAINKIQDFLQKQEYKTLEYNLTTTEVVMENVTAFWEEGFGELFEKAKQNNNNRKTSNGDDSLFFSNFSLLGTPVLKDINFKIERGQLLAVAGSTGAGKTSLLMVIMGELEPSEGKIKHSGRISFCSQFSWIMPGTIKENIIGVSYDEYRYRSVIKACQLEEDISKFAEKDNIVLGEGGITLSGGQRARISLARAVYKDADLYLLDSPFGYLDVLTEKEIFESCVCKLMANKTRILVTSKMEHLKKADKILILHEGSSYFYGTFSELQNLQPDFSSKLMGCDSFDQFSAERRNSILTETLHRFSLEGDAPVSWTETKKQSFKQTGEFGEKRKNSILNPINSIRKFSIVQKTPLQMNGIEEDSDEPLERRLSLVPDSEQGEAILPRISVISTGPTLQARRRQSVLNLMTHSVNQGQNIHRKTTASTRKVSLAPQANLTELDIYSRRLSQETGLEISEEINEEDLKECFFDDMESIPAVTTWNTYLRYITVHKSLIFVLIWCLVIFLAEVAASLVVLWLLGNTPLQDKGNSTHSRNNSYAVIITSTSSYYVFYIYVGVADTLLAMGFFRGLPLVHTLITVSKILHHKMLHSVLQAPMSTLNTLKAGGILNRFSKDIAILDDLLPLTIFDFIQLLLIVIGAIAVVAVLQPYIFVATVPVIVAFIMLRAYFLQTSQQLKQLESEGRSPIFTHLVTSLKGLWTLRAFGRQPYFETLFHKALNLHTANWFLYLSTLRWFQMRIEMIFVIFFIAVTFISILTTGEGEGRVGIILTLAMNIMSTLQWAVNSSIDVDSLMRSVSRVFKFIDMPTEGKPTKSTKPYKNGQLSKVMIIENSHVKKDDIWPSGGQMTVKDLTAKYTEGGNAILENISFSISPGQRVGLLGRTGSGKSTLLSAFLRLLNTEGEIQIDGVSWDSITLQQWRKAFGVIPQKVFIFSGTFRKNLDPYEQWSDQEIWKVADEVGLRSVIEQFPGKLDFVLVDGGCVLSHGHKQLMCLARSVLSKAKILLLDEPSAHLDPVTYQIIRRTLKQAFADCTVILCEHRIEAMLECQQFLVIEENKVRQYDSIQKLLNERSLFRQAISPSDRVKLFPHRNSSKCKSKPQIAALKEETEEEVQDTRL
Outline: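 Chemiluminescent read-out of surface HRP (15 min, dark) after PBS washes. Activity is normalized as 100×(sample−DMSO)/(3 μM co-corrector alone−DMSO).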

ΔF508-CFTR [2] = target: T1, ΔF508-CFTR; experiment: CFTR cell surface levels using HRP-tagged ΔF508-CFTR expressing CFBE cells, intrinsic corrector capacity; assay type: cell-based; design: % Activation: concentration or dose not given beside the values; conditions: HRP-tagged ΔF508-CFTR expressing CFBE41o- cells, compound alone (intrinsic corrector capacity), 20 hours at 33° C.; for EC50: read-out: EC50
Outline: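 Read-out: chemiluminescent HRP activity of ECL4-HRP-tagged ΔF508-CFTR at the cell surface, 15 min substrate in dark. Normalized as 100×(sample−DMSO)/(positive control−DMSO).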

Row | SMILES | % Activation (ΔF508-CFTR [1]) [%] | EC50 (ΔF508-CFTR [1]) [nM] | % Activation (ΔF508-CFTR [2]) [%] | EC50 (ΔF508-CFTR [2]) [nM]
1 | CC(C)Oc1nn(-c2ccccc2)c2nc(C(=O)NS(=O)(=O)C3CC3)cc(-c3ccc(N4CCOCC4)cc3)c12 [Compound 225, N-(cyclopropanesulfonyl)-4-[4-(morpholin-4-yl)phenyl]-1-phenyl-3-[(propan-2-yl)oxy]-1H-pyrazolo[3,4-b]pyridine-6-carboxamide] | 427.95 | 579 | 215.35 | 456
2 | CS(=O)(=O)NC(=O)c1cc(N2CCC(N3CCOCC3)CC2)c2c(C3CCC3)nn(-c3cccc(F)c3)c2n1 [Compound 515, 3-cyclobutyl-1-(3-fluorophenyl)-N-(methanesulfonyl)-4-[4-(morpholin-4-yl)piperidin-1-yl]-1H-pyrazolo[3,4-b]pyridine-6-carboxamide] | 479.2 | 52.9 | 287.1 | 179
3 | CC(C)c1nn(C2CCCCC2)c2nc(C(=O)NS(C)(=O)=O)cc(-c3ccc(N4CCOC(C)(C)C4)nc3)c12 [Compound 94, 1-cyclohexyl-4-[6-(2,2-dimethylmorpholin-4-yl)pyridin-3-yl]-N-(methanesulfonyl)-3-(propan-2-yl)-1H-pyrazolo[3,4-b]pyridine-6-carboxamide] | 421.53 | 342 | 193.5 | 614
4 | COCC1CCN(c2cc(C(=O)NS(=O)(=O)c3cn(C)cn3)nc3c2c(C2CCC2)nn3-c2ccccc2)CC1 [Compound 286, 3-cyclobutyl-4-[4-(methoxymethyl)piperidin-1-yl]-N-(1-methyl-1H-imidazole-4-sulfonyl)-1-phenyl-1H-pyrazolo[3,4-b]pyridine-6-carboxamide] | 500.55 | 159 | 264 | 327
5 | COCC1CCN(c2cc(C(=O)N3CCCS3(=O)=O)nc3c2c(C2CCC2)nn3-c2ccccc2)CC1 [Compound 667, 2-{3-cyclobutyl-4-[4-(methoxymethyl)piperidin-1-yl]-1-phenyl-1H-pyrazolo[3,4-b]pyridine-6-carbonyl}-1λ^6,2-thiazolidine-1,1-dione] | 225.5 | 85.5 | 75.435 | 208
6 | CC(C)c1nn(C2CCCCC2)c2nc(C(=O)NS(C)(=O)=O)cc(-c3ccc(N(C)C4CCOC4)nc3)c12 (stereo not shown) [Compound 122, 1-cyclohexyl-N-(methanesulfonyl)-4-{6-[methyl(oxolan-3-yl)amino]pyridin-3-yl}-3-(propan-2-yl)-1H-pyrazolo[3,4-b]pyridine-6-carboxamide] | 405.9 | 281 | 184.53 | 470
7 | CCS(=O)(=O)NC(=O)c1cc(N2CCC(N3CCCCC3)CC2)c2c(C3CCC3)nn(-c3ccc(F)cc3)c2n1 [Compound 478, 4-([1,4'-bipiperidin]-1'-yl)-3-cyclobutyl-N-(ethanesulfonyl)-1-(4-fluorophenyl)-1H-pyrazolo[3,4-b]pyridine-6-carboxamide] | 476.7 | 127 | 295.4 | 2640
8 | CCS(=O)(=O)NC(=O)c1cc(N2CCCC(OC)C2)c2c(C(C)C)nn(-c3cccc(C)c3)c2n1 (stereo not shown) [Compound 163, N-(ethanesulfonyl)-4-(3-methoxypiperidin-1-yl)-1-(3-methylphenyl)-3-(propan-2-yl)-1H-pyrazolo[3,4-b]pyridine-6-carboxamide] | 342.3 | 112 | 175.4 | 442
9 | CC1(c2nn(-c3ccccc3)c3nc(C(=O)NS(C)(=O)=O)cc(-c4ccc(N5CCOCC5)cc4)c23)CCC1 [Compound 137, N-(methanesulfonyl)-3-(1-methylcyclobutyl)-4-[4-(morpholin-4-yl)phenyl]-1-phenyl-1H-pyrazolo[3,4-b]pyridine-6-carboxamide] | 339.7 | 638 | 131.8 | 1170
10 | CCS(=O)(=O)NC(=O)c1cc(-c2ccc(N3CCOCC3)cc2)c2c(C)nn(-c3ccc(OC(F)(F)F)cc3)c2n1 [Compound 70, N-(ethanesulfonyl)-3-methyl-4-[4-(morpholin-4-yl)phenyl]-1-[4-(trifluoromethoxy)phenyl]-1H-pyrazolo[3,4-b]pyridine-6-carboxamide] | 342.85 | 410 | 167.8 | 621
11 | CC(C)Oc1nn(C2CCCCC2)c2nc(C(=O)NS(C)(=O)=O)cc(-c3ccc(C(=O)N4CC5CNCC5C4)cc3)c12 (stereo not shown) [Compound 631, 1-cyclohexyl-4-[4-(hexahydropyrrolo[3,4-c]pyrrole-2(1H)-carbonyl)phenyl]-N-(methanesulfonyl)-3-[(propan-2-yl)oxy]-1H-pyrazolo[3,4-b]pyridine-6-carboxamide] | 352.63 | 2990 | 122.53 | 3340
12 | CCS(=O)(=O)N(C)C(=O)c1cc(N2CCC(N3CCOCC3)CC2)c2c(C3CCC3)nn(-c3ccccc3)c2n1 [Compound 658, 3-cyclobutyl-N-(ethanesulfonyl)-N-methyl-4-[4-(morpholin-4-yl)piperidin-1-yl]-1-phenyl-1H-pyrazolo[3,4-b]pyridine-6-carboxamide] | 270.6 | – | 99.025 | –
13 | COC(=O)N1CCN(C2CCN(c3cc(C(=O)NS(=O)(=O)N(C)C)nc4c3c(C3CCC3)nn4-c3ccc(F)cc3)CC2)CC1 [Compound 492, methyl 4-(1-{3-cyclobutyl-6-[(dimethylsulfamoyl)carbamoyl]-1-(4-fluorophenyl)-1H-pyrazolo[3,4-b]pyridin-4-yl}piperidin-4-yl)piperazine-1-carboxylate] | 483.4 | 43.9 | 311 | 79.9
14 | COCCS(=O)(=O)NC(=O)c1cc(-c2ccc(N3CCOCC3)cc2)c2cnn(-c3ccccc3)c2n1 [Compound 233, N-(2-methoxyethanesulfonyl)-4-[4-(morpholin-4-yl)phenyl]-1-phenyl-1H-pyrazolo[3,4-b]pyridine-6-carboxamide] | 206.57 | 1930 | 58.34 | 2440
15 | CC(C)Oc1nn(C2CCCCC2)c2nc(C(=O)NS(=O)(=O)N(C)C)cc(-c3ccc(CN4CCN(C)CC4)cc3)c12 [Compound 442, 1-cyclohexyl-N-(dimethylsulfamoyl)-4-{4-[(4-methylpiperazin-1-yl)methyl]phenyl}-3-[(propan-2-yl)oxy]-1H-pyrazolo[3,4-b]pyridine-6-carboxamide] | 342 | 1110 | 146.8 | 307
16 | Cc1nn(-c2ccccc2)c2nc(C(=O)NS(=O)(=O)c3ccccc3)cc(-c3ccc(N4CCOCC4)cc3)c12 [Compound 2, N-(benzenesulfonyl)-3-methyl-4-[4-(morpholin-4-yl)phenyl]-1-phenyl-1H-pyrazolo[3,4-b]pyridine-6-carboxamide] | 431.5 | 1120 | 226.75 | 1870
17 | C[C@H](C1CCN(c2cc(C(=O)NS(=O)(=O)N(C)C)nc3c2c(C2CCC2)nn3-c2ccc(F)cc2)CC1)N1CCOCC1 (single isomer, unassigned) [Compound 479] | 524.1 | 109 | 305.7 | 197
18 | CC(C)c1nn(C2CCCCC2)c2nc(C(=O)NS(C)(=O)=O)cc(-c3ccc(N4CCC(F)(F)C4)nc3)c12 [Compound 64, 1-cyclohexyl-4-[6-(3,3-difluoropyrrolidin-1-yl)pyridin-3-yl]-N-(methanesulfonyl)-3-(propan-2-yl)-1H-pyrazolo[3,4-b]pyridine-6-carboxamide] | 362.45 | 444 | 152.75 | 935
19 | CC(C)c1nn(-c2ccnc(N3CCOCC3)c2)c2nc(C(=O)NS(C)(=O)=O)cc(OCC3CCOCC3)c12 [Compound 336, N-(methanesulfonyl)-1-[2-(morpholin-4-yl)pyridin-4-yl]-4-[(oxan-4-yl)methoxy]-3-(propan-2-yl)-1H-pyrazolo[3,4-b]pyridine-6-carboxamide] | 232.42 | 282 | 107.2 | 420
20 | CS(=O)(=O)NC(=O)c1cc(N2CCC(N3CCOCC3)CC2)c2c(C3CCC3)nn(-c3cccc(C(F)(F)F)c3)c2n1 [Compound 516, 3-cyclobutyl-N-(methanesulfonyl)-4-[4-(morpholin-4-yl)piperidin-1-yl]-1-[3-(trifluoromethyl)phenyl]-1H-pyrazolo[3,4-b]pyridine-6-carboxamide] | 545.3 | 56.6 | 322.7 | 120
21 | CC1(S(=O)(=O)NC(=O)c2cc(N3CCC(N4CCOCC4)CC3)c3c(C4CCC4)nn(-c4ccc(F)cc4)c3n2)CC1 [Compound 508, 3-cyclobutyl-1-(4-fluorophenyl)-N-(1-methylcyclopropane-1-sulfonyl)-4-[4-(morpholin-4-yl)piperidin-1-yl]-1H-pyrazolo[3,4-b]pyridine-6-carboxamide] | 448.8 | 90.3 | 217.5 | 182
